Experimental data reported in ChEMBL document CHEMBL1127199, “Design of C-terminal peptide antagonists of endothelin: structure-activity relationships of ET-[1621, D-His16]” (Bioorg Med Chem Lett, 1993).
Where a SMILES comes first, the peptide text is derived from it. [ ]: non-standard residue; d: D form.

Legend:
[1] = molecular target: T1, Endothelin receptor type B (Rattus norvegicus, UniProt P21451); assay: Displacement of [125I]ET1 from Endothelin B receptor of rat cerebellum; type: tissue-based
T1 sequence (P21451 whole entry): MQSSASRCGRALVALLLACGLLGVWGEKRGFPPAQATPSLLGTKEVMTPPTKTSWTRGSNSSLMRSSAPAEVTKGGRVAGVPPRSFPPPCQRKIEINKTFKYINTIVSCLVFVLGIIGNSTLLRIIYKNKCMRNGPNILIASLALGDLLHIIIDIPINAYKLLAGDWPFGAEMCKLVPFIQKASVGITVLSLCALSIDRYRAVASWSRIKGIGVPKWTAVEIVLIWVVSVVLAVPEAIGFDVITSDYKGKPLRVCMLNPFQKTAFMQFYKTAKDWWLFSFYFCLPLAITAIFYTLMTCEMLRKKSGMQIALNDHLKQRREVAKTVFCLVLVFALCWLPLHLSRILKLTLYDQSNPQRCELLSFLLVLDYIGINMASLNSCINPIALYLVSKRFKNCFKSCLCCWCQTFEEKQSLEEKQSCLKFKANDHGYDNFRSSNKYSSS

Oryctolagus cuniculus = species: Oryctolagus cuniculus; assay: Compound was tested for its inhibition of ET-1 induced arachidonic acid accumulation in rabbit renal artery vascular smooth muscle cells; type: functional
[2] = molecular target: Endothelin A receptor (Oryctolagus cuniculus); assay: Displacement of [125I]-ET-1 from Endothelin A receptor of rabbit renal artery vascular smooth muscle cells

Compound: CC[C@H](C)[C@H](NC(=O)[C@H](CC(=O)O)NC(=O)[C@H](Cc1ccccc1)NC(=O)[C@@H](Cc1ccccc1)NC(C)=O)C(=O)N[C@H](C(=O)N[C@@H](Cc1c[nH]c2ccccc12)C(=O)O)[C@@H](C)CC (Ac-[dF]FDIIW-OH)
- IC50 [1]: 50 nM

Compound: CC[C@H](C)[C@H](NC(=O)[C@H](CC(=O)O)NC(=O)[C@H](CCC(=O)O)NC(=O)[C@@H](Cc1ccccc1)NC(C)=O)C(=O)N[C@H](C(=O)N[C@@H](Cc1c[nH]c2ccccc12)C(=O)O)[C@@H](C)CC (Ac-[dF]EDIIW-OH)
- IC50 (Oryctolagus cuniculus): 600 nM

Compound: CC[C@H](C)[C@H](NC(=O)[C@H](CC(=O)O)NC(=O)[C@@H](Cc1ccccc1)NC(=O)[C@@H](Cc1ccccc1)NC(C)=O)C(=O)N[C@H](C(=O)N[C@@H](Cc1c[nH]c2ccccc12)C(=O)O)[C@@H](C)CC (Ac-[dF][dF]DIIW-OH)
- IC50 [1]: 30 nM
- IC50 (Oryctolagus cuniculus): 1600 nM

Compound: CC[C@H](C)[C@H](NC(=O)[C@H](CC(=O)O)NC(=O)[C@H](CC(C)C)NC(=O)[C@H](Cc1c[nH]cn1)NC(C)=O)C(=O)N[C@H](C(=O)N[C@@H](Cc1c[nH]c2ccccc12)C(=O)O)[C@@H](C)CC (Ac-HLDIIW-OH)
- IC50 [1]: > 50000 nM

Compound: CC[C@H](C)[C@H](NC(=O)[C@H](CC(=O)O)NC(=O)[C@H](CC(C)C)NC(=O)[C@@H](Cc1ccccc1)NC(C)=O)C(=O)N[C@H](C(=O)N[C@@H](Cc1c[nH]c2ccccc12)C(=O)O)[C@@H](C)CC (Ac-[dF]LDIIW-OH)
- IC50 [1]: 140 nM

Compound: CC[C@H](C)[C@H](NC(=O)[C@H](CC(=O)O)NC(=O)[C@@H](Cc1ccccc1)NC(C)=O)C(=O)N[C@H](C(=O)N[C@@H](Cc1c[nH]c2ccccc12)C(=O)O)[C@@H](C)CC (Ac-[dF]DIIW-OH)
- IC50 [2]: 9100 nM
